Assay results as given in PubChem BioAssay AID1963433 (Molecular Pharmacology Branch, DTP, NCI, 2024).
pIC50: −log10 of the molar value.

System: 772245-204-R-J1-PDC complex spheroid growth
Assay: Anticancer human tumor 772245-204-R-J1-PDC patient-derived rhabdomyosarcoma cell line growth inhibition [Asc]
Conditions: for pIC50: curve of first compound; for viability, T/C: stronger effect = lower value
In short: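 Complex solid-tumor spheroids incorporating human endothelial and mesenchymal stem cells received single agents or combinations over half-log dilution ranges anchored to clinical Cmax.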
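Also: compound exposure lasted seven days.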
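For viability, T/C in this document: 100% = DMSO vehicle control viability.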

C=C(F)C(=O)N1CCN(c2nc(OCC3CCCN3C)nc3c2CCN(c2cccc4cccc(Cl)c24)C3)CC1CC#N (stereo not given) + CCN1C(C(=O)NC23CCC(C(=O)O)(CC2)CC3)C(c2cccc(Cl)c2F)C2(C(=O)Nc3cc(Cl)ccc32)C12CCCCC2
pIC50 (second compound 0.03 µM): 5.41
pIC50 (second compound 0.0949 µM): 5.40
pIC50 (second compound 0.3 µM): 5.35
pIC50 (second compound 0.949 µM): 5.48
pIC50 (second compound 3 µM): 5.68
viability, T/C (second compound 0.03 µM, first compound 0.0316 µM): 94.9%
viability, T/C (second compound 0.03 µM, first compound 0.1 µM): 101%
viability, T/C (second compound 0.03 µM, first compound 0.316 µM): 83.1%
viability, T/C (second compound 0.03 µM, first compound 1 µM): 97.2%
viability, T/C (second compound 0.03 µM, first compound 3.16 µM): 61.6%
viability, T/C (second compound 0.03 µM, first compound 10 µM): 0.2%
viability, T/C (second compound 0.0949 µM, first compound 0.0316 µM): 93.7%
viability, T/C (second compound 0.0949 µM, first compound 0.1 µM): 94.5%
viability, T/C (second compound 0.0949 µM, first compound 0.316 µM): 85.3%
viability, T/C (second compound 0.0949 µM, first compound 1 µM): 89.6%
viability, T/C (second compound 0.0949 µM, first compound 3.16 µM): 61.7%
viability, T/C (second compound 0.0949 µM, first compound 10 µM): 0.17%
viability, T/C (second compound 0.3 µM, first compound 0.0316 µM): 95.8%
viability, T/C (second compound 0.3 µM, first compound 0.1 µM): 96.7%
viability, T/C (second compound 0.3 µM, first compound 0.316 µM): 85.6%
viability, T/C (second compound 0.3 µM, first compound 1 µM): 87%
viability, T/C (second compound 0.3 µM, first compound 3.16 µM): 71.8%
viability, T/C (second compound 0.3 µM, first compound 10 µM): 0.18%
viability, T/C (second compound 0.949 µM, first compound 0.0316 µM): 92.3%
viability, T/C (second compound 0.949 µM, first compound 0.1 µM): 83.7%
viability, T/C (second compound 0.949 µM, first compound 0.316 µM): 91.6%
viability, T/C (second compound 0.949 µM, first compound 1 µM): 96.7%
viability, T/C (second compound 0.949 µM, first compound 3.16 µM): 51.9%
viability, T/C (second compound 0.949 µM, first compound 10 µM): 0.16%
viability, T/C (second compound 3 µM, first compound 0.0316 µM): 72.7%
viability, T/C (second compound 3 µM, first compound 0.1 µM): 79.8%
viability, T/C (second compound 3 µM, first compound 0.316 µM): 72.5%
viability, T/C (second compound 3 µM, first compound 1 µM): 73%
viability, T/C (second compound 3 µM, first compound 3.16 µM): 37.5%
viability, T/C (second compound 3 µM, first compound 10 µM): 0.38%

NC1CCC(NC2CC2c2ccccc2)CC1 (stereo not given) + Cc1c(S(C)(=O)=O)c(-c2cc(F)cc(N3CCN(c4ccc(NS(=O)(=O)c5ccc(NC(CCN6CCC(C(=O)OCCCP(=O)(O)O)CC6)CSc6ccccc6)c(S(=O)(=O)C(F)(F)F)c5)cc4)CC3)c2)c(-c2ccc(Cl)cc2)n1C(C)C
pIC50 (second compound 0.1 µM): < 7.00
pIC50 (second compound 0.316 µM): > 9.50
pIC50 (second compound 1 µM): > 9.50
pIC50 (second compound 3.16 µM): > 9.50
pIC50 (second compound 10 µM): > 9.50
viability, T/C (second compound 0.1 µM, first compound 0.000316 µM): 69.1%
viability, T/C (second compound 0.1 µM, first compound 0.001 µM): 67.9%
viability, T/C (second compound 0.1 µM, first compound 0.00316 µM): 66%
viability, T/C (second compound 0.1 µM, first compound 0.01 µM): 59.6%
viability, T/C (second compound 0.1 µM, first compound 0.0316 µM): 66.6%
viability, T/C (second compound 0.1 µM, first compound 0.1 µM): 61.2%
viability, T/C (second compound 0.316 µM, first compound 0.000316 µM): 42.7%
viability, T/C (second compound 0.316 µM, first compound 0.001 µM): 48.9%
viability, T/C (second compound 0.316 µM, first compound 0.00316 µM): 41.6%
viability, T/C (second compound 0.316 µM, first compound 0.01 µM): 38.2%
viability, T/C (second compound 0.316 µM, first compound 0.0316 µM): 38.1%
viability, T/C (second compound 0.316 µM, first compound 0.1 µM): 45.2%
viability, T/C (second compound 1 µM, first compound 0.000316 µM): 34.1%
viability, T/C (second compound 1 µM, first compound 0.001 µM): 24.2%
viability, T/C (second compound 1 µM, first compound 0.00316 µM): 22.6%
viability, T/C (second compound 1 µM, first compound 0.01 µM): 24.2%
viability, T/C (second compound 1 µM, first compound 0.0316 µM): 26.3%
viability, T/C (second compound 1 µM, first compound 0.1 µM): 24.8%
viability, T/C (second compound 3.16 µM, first compound 0.000316 µM): 24.2%
viability, T/C (second compound 3.16 µM, first compound 0.001 µM): 18.1%
viability, T/C (second compound 3.16 µM, first compound 0.00316 µM): 17.8%
viability, T/C (second compound 3.16 µM, first compound 0.01 µM): 18.7%
viability, T/C (second compound 3.16 µM, first compound 0.0316 µM): 13.7%
viability, T/C (second compound 3.16 µM, first compound 0.1 µM): 13.2%
viability, T/C (second compound 10 µM, first compound 0.000316 µM): 20.4%
viability, T/C (second compound 10 µM, first compound 0.001 µM): 18.1%
viability, T/C (second compound 10 µM, first compound 0.00316 µM): 15.8%
viability, T/C (second compound 10 µM, first compound 0.01 µM): 18.4%
viability, T/C (second compound 10 µM, first compound 0.0316 µM): 16.8%
viability, T/C (second compound 10 µM, first compound 0.1 µM): 13.2%

CCN1C(C(=O)NC23CCC(C(=O)O)(CC2)CC3)C(c2cccc(Cl)c2F)C2(C(=O)Nc3cc(Cl)ccc32)C12CCCCC2 (stereo not given) + Cc1c(S(C)(=O)=O)c(-c2cc(F)cc(N3CCN(c4ccc(NS(=O)(=O)c5ccc(NC(CCN6CCC(C(=O)OCCCP(=O)(O)O)CC6)CSc6ccccc6)c(S(=O)(=O)C(F)(F)F)c5)cc4)CC3)c2)c(-c2ccc(Cl)cc2)n1C(C)C
pIC50 (second compound 0.1 µM): 5.89
pIC50 (second compound 0.316 µM): 6.39
pIC50 (second compound 1 µM): 7.59
pIC50 (second compound 3.16 µM): > 8.02
pIC50 (second compound 10 µM): > 8.02
viability, T/C (second compound 0.1 µM, first compound 0.00949 µM): 80%
viability, T/C (second compound 0.1 µM, first compound 0.03 µM): 84.5%
viability, T/C (second compound 0.1 µM, first compound 0.0949 µM): 71.5%
viability, T/C (second compound 0.1 µM, first compound 0.3 µM): 78.3%
viability, T/C (second compound 0.1 µM, first compound 0.949 µM): 57.6%
viability, T/C (second compound 0.1 µM, first compound 3 µM): 29.6%
viability, T/C (second compound 0.316 µM, first compound 0.00949 µM): 57.2%
viability, T/C (second compound 0.316 µM, first compound 0.03 µM): 65.5%
viability, T/C (second compound 0.316 µM, first compound 0.0949 µM): 67.2%
viability, T/C (second compound 0.316 µM, first compound 0.3 µM): 51.9%
viability, T/C (second compound 0.316 µM, first compound 0.949 µM): 36.6%
viability, T/C (second compound 0.316 µM, first compound 3 µM): 13.4%
viability, T/C (second compound 1 µM, first compound 0.00949 µM): 58.8%
viability, T/C (second compound 1 µM, first compound 0.03 µM): 49.2%
viability, T/C (second compound 1 µM, first compound 0.0949 µM): 38%
viability, T/C (second compound 1 µM, first compound 0.3 µM): 29.3%
viability, T/C (second compound 1 µM, first compound 0.949 µM): 25.9%
viability, T/C (second compound 1 µM, first compound 3 µM): 15%
viability, T/C (second compound 3.16 µM, first compound 0.00949 µM): 32.1%
viability, T/C (second compound 3.16 µM, first compound 0.03 µM): 42%
viability, T/C (second compound 3.16 µM, first compound 0.0949 µM): 35.3%
viability, T/C (second compound 3.16 µM, first compound 0.3 µM): 21.6%
viability, T/C (second compound 3.16 µM, first compound 0.949 µM): 17.2%
viability, T/C (second compound 3.16 µM, first compound 3 µM): 9.63%
viability, T/C (second compound 10 µM, first compound 0.00949 µM): 46.4%
viability, T/C (second compound 10 µM, first compound 0.03 µM): 48.7%
viability, T/C (second compound 10 µM, first compound 0.0949 µM): 38.3%
viability, T/C (second compound 10 µM, first compound 0.3 µM): 35.2%
viability, T/C (second compound 10 µM, first compound 0.949 µM): 22.1%
viability, T/C (second compound 10 µM, first compound 3 µM): 4.04%
